# Reference: patent publication US4091006A, “Esters of 3-hydroxyindone compounds” (priority 1975, dated 1978)
# System: adults and nymphal stages of the two-spotted mite
# Assay: Mite Foliage Spray Test
# Type: in vivo, Tetranychus urticae (Koch)
# Parameters: key: 1: no mortality; 3: an approximately 50% mortality; 5: 100% mortality
# Details: 4 days
# Source text: (§1) The test procedures were as follows:
# (§2) Compositions were rated on the basis of percent kill with a rating of 1 indicating no mortality; 3 signifying an approximately 50% mortality and 5 indicating 100% mortality at the indicated dosage.
row,Molecule,Mite Adult rating
1,"O=C(OC1=C(c2c(Cl)cccc2Cl)C(=O)c2ccccc21)c1ccccc1Cl [3-(2-chlorobenzoyloxy)-2-(2',6'-dichlorophenyl)indone]",5 (100% mortality)
2,"Cc1cc(C)c(C2=C(OC(=O)c3ccccc3Cl)c3ccccc3C2=O)c(C)c1 [3-(2-Chlorobenzoyloxy)-2-(2',4',6'-trimethylphenyl)indone]",5 (100% mortality)
3,"Cc1cc(C)c(C2=C(OC(=O)c3cccc(Cl)c3)c3ccccc3C2=O)c(C)c1 [3-(3-Chlorobenzoyloxy)-2-(2',4',6'-trimethylphenyl)indone]",5 (100% mortality)
4,"2-(2',5'-Dimethylphenyl)-3-(neodecanoyloxy)indone",1
5,2-(2'-Methylphenyl)-3-(neodecanoyloxy)indone,1
6,"CC(=O)OC1=C(c2c(C)cc(C)cc2C)C(=O)c2ccccc21 [2-(2',4',6'-Trimethylphenyl)-3-(acetoxy)indone]",5 (100% mortality)

# System: Bean
# Assay: Phytotoxicity, bean
# Details: 2500 ppm, 10 days
row,Molecule,"Phytotoxicity Rating, Bean"
1,"2-(2',5'-Dimethylphenyl)-3-(neodecanoyloxy)indone",1
2,2-(2'-Methylphenyl)-3-(neodecanoyloxy)indone,1

# System: eggs of the two-spotted mite
# Assay: Fumigant toxicity, Method 1 (deposit in pie plate)
# Type: in vivo
# Details: deposit approx. 160 μg per square cm, 4 days
# Protocol: (§3) Two methods were used to evaluate fumigant properties:
# Method 1: Fifty mg. of each compound were dissolved in 5 ml. of acetone and poured into a 20 cm. (bottom diameter) Pyrex No. 210 pie plate. The acetone was allowed to evaporate leaving a deposit of approximately 160 μg. per square cm. The plate was then placed in the bottom of a 50 pound metal lard container (about 30 cm. in diameter and 34 cm. high). Two excised bean plants, held in a 250 ml. Erlenmeyer flask containing 100 ml. of tap water and infested with eggs of the two-spotted mite, were placed in the center of the pie plate. The container was held in the insectary (temperature 80±5° F., 50±5% R. H.) for four days before mortality determinations were made.
row,Molecule,Fumigant Toxicity Method 1
1,"CC(=O)OC1=C(c2c(C)cc(C)cc2C)C(=O)c2ccccc21 [2-(2',4',6'-Trimethylphenyl)-3-(acetoxy)indone]",5 (80-100% control)

# System: Corn
# Assay: Phytotoxicity, corn
# Details: 2500 ppm, 10 days
# Protocol: (§4) Experiments were also conducted to determine the phytotoxicity of representative enol ester compositions with respect to healthy fresh plants. […] The test plants were sprayed in accordance with the procedure described above for the Mite Foliage Spray Test so as to deliver approximately 100 milliliters of test solution to the leaves of each plant tested. The sprayed plants and controls were set aside for approximately 1 hour to allow the solutions to dry and were then placed in the greenhouse. After 10 days the plants were visually inspected to determine the extent of foliage injury. A rating of 1 indicates no perceptible injury; 5 indicates the plant was dead and ratings of 2, 3 and 4 indicate intermediate degrees of injury based upon the number and extent to which leaves were injured.
row,Molecule,"Phytotoxicity Rating, Corn"
1,"2-(2',5'-Dimethylphenyl)-3-(neodecanoyloxy)indone",1
2,2-(2'-Methylphenyl)-3-(neodecanoyloxy)indone,1

# System: egg of the two-spotted mite
# Assay: Mite Ovicide Test
# Type: in vivo, Tetranychus urticae (Koch)
# Parameters: key to Mite Ova rating: 1: no mortality; 3: an approximately 50% mortality; 5: 100% mortality
# Details: spray on eggs, 4 days
# Source text: as §1
# The plants were allowed to dry thoroughly.
# as §2
row,Molecule,Mite Ova rating
1,"O=C(OC1=C(c2c(Cl)cccc2Cl)C(=O)c2ccccc21)c1ccccc1Cl [3-(2-chlorobenzoyloxy)-2-(2',6'-dichlorophenyl)indone]",5 (100% mortality)
2,"Cc1cc(C)c(C2=C(OC(=O)c3ccccc3Cl)c3ccccc3C2=O)c(C)c1 [3-(2-Chlorobenzoyloxy)-2-(2',4',6'-trimethylphenyl)indone]",5 (100% mortality)
3,"Cc1cc(C)c(C2=C(OC(=O)c3cccc(Cl)c3)c3ccccc3C2=O)c(C)c1 [3-(3-Chlorobenzoyloxy)-2-(2',4',6'-trimethylphenyl)indone]",5 (100% mortality)
4,"2-(2',5'-Dimethylphenyl)-3-(neodecanoyloxy)indone",3 (an approximately 50% mortality)
5,2-(2'-Methylphenyl)-3-(neodecanoyloxy)indone,1
6,"CC(=O)OC1=C(c2c(C)cc(C)cc2C)C(=O)c2ccccc21 [2-(2',4',6'-Trimethylphenyl)-3-(acetoxy)indone]",5 (100% mortality)

# System: egg forms of the two-spotted mite
# Assay: Fumigant toxicity, Method 2 (treated plants near untreated infested plants)
# Type: in vivo
# Details: 500 ppm dip, 4 days
# Protocol: as §3
# Method 2: Excised bean plants infested with egg forms of the two-spotted mite were dipped in an aqueous preparation (500 ppm) of the test compound. The treated plants were transferred to 250 ml. Erlenmeyer flasks containing 100 ml. of tap water. Four flasks holding treated plants were evenly spaced around a similar flask in which were placed untreated mite-infested plants so that the leaves of the treated foliage were in close proximity (1-3 inches) to the untreated plants. Four days later mortality determinations were made.
row,Molecule,Fumigant Toxicity Method 2
1,"CC(=O)OC1=C(c2c(C)cc(C)cc2C)C(=O)c2ccccc21 [2-(2',4',6'-Trimethylphenyl)-3-(acetoxy)indone]",5 (80-100% control)

# System: Perennial rye grass, crabgrass, red root pigweed, mustard
# Assay: Preliminary Herbicide Seed Germination Test
# Details: rating/maximum 20: 100 ppm only, four species, each rated 1 (no injury) to 5 (no seedlings emerged)
row,Molecule,Herbicide (total preemergence rating)
1,"2-(2',5'-Dimethylphenyl)-3-(neodecanoyloxy)indone",4/20
2,2-(2'-Methylphenyl)-3-(neodecanoyloxy)indone,4/20

# Same assay, conditions: rating/maximum 40: 100 and 1000 ppm, four species, each rated 1 (no injury) to 5 (no seedlings emerged), 10-12 days
row,Molecule,Herbicide (total preemergence rating)
1,"O=C(OC1=C(c2c(Cl)cccc2Cl)C(=O)c2ccccc21)c1ccccc1Cl [3-(2-chlorobenzoyloxy)-2-(2',6'-dichlorophenyl)indone]",30/40
2,"Cc1cc(C)c(C2=C(OC(=O)c3ccccc3Cl)c3ccccc3C2=O)c(C)c1 [3-(2-Chlorobenzoyloxy)-2-(2',4',6'-trimethylphenyl)indone]",32/40
3,"Cc1cc(C)c(C2=C(OC(=O)c3cccc(Cl)c3)c3ccccc3C2=O)c(C)c1 [3-(3-Chlorobenzoyloxy)-2-(2',4',6'-trimethylphenyl)indone]",29/40
4,"CC(=O)OC1=C(c2c(C)cc(C)cc2C)C(=O)c2ccccc21 [2-(2',4',6'-Trimethylphenyl)-3-(acetoxy)indone]",39/40

# System: two-spotted mite
# Assay: Small scale field tests, mite control on Tendergreen bean plants
# Type: in vivo, Tetranychus urticae (Koch)
# Details: Test I, 500 ppm, 4 days; scale 1 (no control) to 5 (complete control)
# Protocol: Selected enol ester compositions were evaluated in small scale field tests to determine whether the excellent miticidal properties observed in greenhouse testing would be obtained under actual conditions of field use.
# In Test I 500 ppm aqueous dispersions were prepared as described above. In tests II and III various dilutions of the test compounds ranging from 125 ppm to 1000 ppm were prepared and used. In each case the test dispersions were applied to a minimum of two replicate test plots measuring five feet in length and containing healthy young Tendergreen bean plants which had previously been infested with two-spotted mite (Tetranychus urticae (Koch)). Dispersions of the test compounds at each concentration level were applied to individual replicate plots using 1/2 gallon garden sprayers equipped with spray nozzles to apply approximately 250 ml. of test solution to each replicate. The effectiveness of the treatment was determined at intervals following application, by microscopic examination of five leaves selected at random from each replicate plot. The degree of effectiveness for each leaf was rated on a scale of from 1 to 5 with 1 indicating no control in reference to a standard sprayed with a mixture of solution less test compound and 5 indicating complete control. The results obtained from inspection of sample leaves were then averaged to give a numerical indication of the degree of control for each compound tested at the concentration applied.
row,Molecule,"Average mite control rating, 1st Reading"
1,"O=C(OC1=C(c2c(Cl)cccc2Cl)C(=O)c2ccccc21)c1ccccc1Cl [3-(2-chlorobenzoyloxy)-2-(2',6'-dichlorophenyl)indone]",3.0
2,"Cc1cc(C)c(C2C(=O)c3ccccc3C2=O)c(C)c1 [Compound A, 2-(2',4',6'-trimethylphenyl)-1,3-indandione, reference compound]",1.0
3,"Cc1cc(C)c(C2=C(OC(=O)c3ccccc3Cl)c3ccccc3C2=O)c(C)c1 [3-(2-Chlorobenzoyloxy)-2-(2',4',6'-trimethylphenyl)indone]",2.5
4,"Cc1cc(C)c(C2=C(OC(=O)c3cccc(Cl)c3)c3ccccc3C2=O)c(C)c1 [3-(3-Chlorobenzoyloxy)-2-(2',4',6'-trimethylphenyl)indone]",1.5
5,"O=C1c2ccccc2C(=O)C1c1c(Cl)cccc1Cl [Compound B, 2-(2',6'-dichlorophenyl)-1,3-indandione, reference compound]",1.5

# Same assay, conditions: Test I, 500 ppm, 8 days; scale 1 to 5
row,Molecule,"Average mite control rating, 2nd Reading"
1,"O=C(OC1=C(c2c(Cl)cccc2Cl)C(=O)c2ccccc21)c1ccccc1Cl [3-(2-chlorobenzoyloxy)-2-(2',6'-dichlorophenyl)indone]",2.5
2,"Cc1cc(C)c(C2C(=O)c3ccccc3C2=O)c(C)c1 [Compound A, 2-(2',4',6'-trimethylphenyl)-1,3-indandione, reference compound]",1.0
3,"Cc1cc(C)c(C2=C(OC(=O)c3cccc(Cl)c3)c3ccccc3C2=O)c(C)c1 [3-(3-Chlorobenzoyloxy)-2-(2',4',6'-trimethylphenyl)indone]",2.0
4,"O=C1c2ccccc2C(=O)C1c1c(Cl)cccc1Cl [Compound B, 2-(2',6'-dichlorophenyl)-1,3-indandione, reference compound]",2.0

# Same assay, conditions: Test II, 250 ppm, 3 days; scale 1 to 5
row,Molecule,"Average mite control rating, 1st Reading"
1,"Cc1cc(C)c(C2C(=O)c3ccccc3C2=O)c(C)c1 [Compound A, 2-(2',4',6'-trimethylphenyl)-1,3-indandione, reference compound]",1.0
2,"O=C1c2ccccc2C(=O)C1c1c(Cl)cccc1Cl [Compound B, 2-(2',6'-dichlorophenyl)-1,3-indandione, reference compound]",3.7

# Same assay, conditions: Test II, 250 ppm, 7 days; scale 1 to 5
row,Molecule,"Average mite control rating, 2nd Reading"
1,"Cc1cc(C)c(C2C(=O)c3ccccc3C2=O)c(C)c1 [Compound A, 2-(2',4',6'-trimethylphenyl)-1,3-indandione, reference compound]",1.3
2,"O=C1c2ccccc2C(=O)C1c1c(Cl)cccc1Cl [Compound B, 2-(2',6'-dichlorophenyl)-1,3-indandione, reference compound]",2.3

# Same assay, conditions: Test II, 500 ppm, 3 days; scale 1 to 5
row,Molecule,"Average mite control rating, 1st Reading"
1,"Cc1cc(C)c(C2C(=O)c3ccccc3C2=O)c(C)c1 [Compound A, 2-(2',4',6'-trimethylphenyl)-1,3-indandione, reference compound]",2.7
2,"O=C1c2ccccc2C(=O)C1c1c(Cl)cccc1Cl [Compound B, 2-(2',6'-dichlorophenyl)-1,3-indandione, reference compound]",3.0

# Same assay, conditions: Test II, 500 ppm, 7 days; scale 1 to 5
row,Molecule,"Average mite control rating, 2nd Reading"
1,"Cc1cc(C)c(C2C(=O)c3ccccc3C2=O)c(C)c1 [Compound A, 2-(2',4',6'-trimethylphenyl)-1,3-indandione, reference compound]",1.7
2,"O=C1c2ccccc2C(=O)C1c1c(Cl)cccc1Cl [Compound B, 2-(2',6'-dichlorophenyl)-1,3-indandione, reference compound]",3.3

# Same assay, conditions: Test II, 1000 ppm, 3 days; scale 1 to 5
row,Molecule,"Average mite control rating, 1st Reading"
1,"O=C1c2ccccc2C(=O)C1c1c(Cl)cccc1Cl [Compound B, 2-(2',6'-dichlorophenyl)-1,3-indandione, reference compound]",2.0

# Same assay, conditions: Test II, 1000 ppm, 7 days; scale 1 to 5
row,Molecule,"Average mite control rating, 2nd Reading"
1,"O=C1c2ccccc2C(=O)C1c1c(Cl)cccc1Cl [Compound B, 2-(2',6'-dichlorophenyl)-1,3-indandione, reference compound]",3.3

# Same assay, conditions: Test III, 250 ppm, 3 days; scale 1 to 5
row,Molecule,"Average mite control rating, 1st Reading"
1,"Cc1cc(C)c(C2C(=O)c3ccccc3C2=O)c(C)c1 [Compound A, 2-(2',4',6'-trimethylphenyl)-1,3-indandione, reference compound]",1.0

# Same assay, conditions: Test III, 250 ppm, 7 days; scale 1 to 5
row,Molecule,"Average mite control rating, 2nd Reading"
1,"Cc1cc(C)c(C2C(=O)c3ccccc3C2=O)c(C)c1 [Compound A, 2-(2',4',6'-trimethylphenyl)-1,3-indandione, reference compound]",2.0

# Same assay, conditions: Test III, 500 ppm, 3 days; scale 1 to 5
row,Molecule,"Average mite control rating, 1st Reading"
1,"Cc1cc(C)c(C2C(=O)c3ccccc3C2=O)c(C)c1 [Compound A, 2-(2',4',6'-trimethylphenyl)-1,3-indandione, reference compound]",1.3

# Same assay, conditions: Test III, 500 ppm, 7 days; scale 1 to 5
row,Molecule,"Average mite control rating, 2nd Reading"
1,"Cc1cc(C)c(C2C(=O)c3ccccc3C2=O)c(C)c1 [Compound A, 2-(2',4',6'-trimethylphenyl)-1,3-indandione, reference compound]",1.7

# Same assay, conditions: Test III, 1000 ppm, 3 days; scale 1 to 5
row,Molecule,"Average mite control rating, 1st Reading"
1,"Cc1cc(C)c(C2C(=O)c3ccccc3C2=O)c(C)c1 [Compound A, 2-(2',4',6'-trimethylphenyl)-1,3-indandione, reference compound]",3.3

# Same assay, conditions: Test III, 1000 ppm, 7 days; scale 1 to 5
row,Molecule,"Average mite control rating, 2nd Reading"
1,"Cc1cc(C)c(C2C(=O)c3ccccc3C2=O)c(C)c1 [Compound A, 2-(2',4',6'-trimethylphenyl)-1,3-indandione, reference compound]",3.3

# Same assay, conditions: Test III, 1000 ppm, 21 days; scale 1 to 5
row,Molecule,"Average mite control rating, 3rd Reading"
1,"Cc1cc(C)c(C2C(=O)c3ccccc3C2=O)c(C)c1 [Compound A, 2-(2',4',6'-trimethylphenyl)-1,3-indandione, reference compound]",2.3

# System: Tomato
# Assay: Phytotoxicity, tomato
# Details: 2500 ppm, 10 days
row,Molecule,"Phytotoxicity Rating, Tomato"
1,"2-(2',5'-Dimethylphenyl)-3-(neodecanoyloxy)indone",1
2,2-(2'-Methylphenyl)-3-(neodecanoyloxy)indone,1

# System: Cotton
# Assay: Phytotoxicity, cotton
# Details: 2500 ppm, 10 days
# Protocol: as §4
row,Molecule,"Phytotoxicity Rating, Cotton"
1,"2-(2',5'-Dimethylphenyl)-3-(neodecanoyloxy)indone",1
2,2-(2'-Methylphenyl)-3-(neodecanoyloxy)indone,1
